Columns and labels:
STAT3 in APCs = test: STAT3 phosphorylation and recruitment to IL-10 gene promotor in APCs; assay type: cell-based
Source text: FIG. 26 is a flow chart depicting the experimental design of the in vitro antigen-presenting studies.
Human MCL cells display an enhanced expression of HDAC6. Disruption of HDAC6 in malignant B-cells inhibits their proliferation and is associated with induction of apoptosis. Pharmacologic or genetic disruption of HDAC6 in MCL cells augment their antigen-presenting capabilities leading to better T-cell activation and restoration of function of anergic Tcells in vitro. […] Disclosed herein is the rationale to use HDAC6 specific inhibitor(s) alone or in combination with STAT3 inhibitors in MCL.

[1] = tested on: antigen-specific T-cell responses; test: In vivo antigen-specific T-cell responses to vaccination; parameters: species or system mice; details: in vivo treatment
Source text: Tubastatin A-treated macrophages are better activators of […] and restore the responsiveness of anergic T-cells in vitro. […] Mechanistically, Tubastatin-A disrupt […] pathway and tip the balance towards immunogenic rather than tolerogenic macrophages.

[2] = tested on: JAK2/STAT3 in B16 murine melanoma cells; test: JAK2/STAT3 phosphorylation in B16 melanoma in vivo
[3] = target: human, recombinant full-length HDAC1 (Homo sapiens (Human), UniProt Q13547); test: HDAC inhibition assay, HDAC1; assay type: biochemical; details: HDAC1 and HDAC6, not selective
[4] = tested on: B16 murine melanoma cells; test: B16 melanoma cell growth inhibition assay (MTS); assay type: cell-based
Experimental: The following day, media was changed to that containing various concentrations of HDACi or matched DMSO vehicle concentrations diluted in complete medium done in triplicate. […] Briefly, 20 μL of reagent were added per well and incubated at 37° C. for 3 hours.

[5] = tested on: acetyl-H3 in B16 melanoma cells; test: Histone acetylation Western blot assay; assay type: cell-based, murine; details: 24 h
Experimental: (§1) […]. B16 melanoma cells were plated at 10^5 cells/well in 12 well plates and allowed to adhere overnight. A 50 mM stock of compound was then added by serial dilutions in complete medium to the indicated concentrations. Cells were incubated for 24 h under humidified conditions (37° C., 5% CO2). Wells were then washed with cold PBS, and cells were lysed in a buffer containing 10 mM Tris-HCl pH 8.0, 10% SDS, […], 100 mM DTT, and 1× protease inhibitor (Roche). Cells were lysed for 30 min on ice and then sonicated for 8 min (8 cycles of 30 s on/30 s rest). Cells were then boiled for 10 min with 6× gel loading buffer and resolved on 4-15% gradient gels and subsequently transferred onto nitrocellulose membranes. Membranes were blocked with 5% milk in PBS-T and detection of specific antigens using antibodies against acetyl-H3 and H3 (Cell Signaling), and acetyl-α-tubulin and α-tubulin (Sigma). Bands were detected by scanning blots with LI-COR Odyssey imaging system using both 700 and 800 channels.

[6] = tested on: acetyl-α-tubulin in B16 melanoma cells; test: Tubulin acetylation Western blot assay; assay type: cell-based, murine; details: 24 h, low nanomolar treatment
Experimental: as §1

Sequence of human, recombinant full-length HDAC1 (Q13547 whole entry): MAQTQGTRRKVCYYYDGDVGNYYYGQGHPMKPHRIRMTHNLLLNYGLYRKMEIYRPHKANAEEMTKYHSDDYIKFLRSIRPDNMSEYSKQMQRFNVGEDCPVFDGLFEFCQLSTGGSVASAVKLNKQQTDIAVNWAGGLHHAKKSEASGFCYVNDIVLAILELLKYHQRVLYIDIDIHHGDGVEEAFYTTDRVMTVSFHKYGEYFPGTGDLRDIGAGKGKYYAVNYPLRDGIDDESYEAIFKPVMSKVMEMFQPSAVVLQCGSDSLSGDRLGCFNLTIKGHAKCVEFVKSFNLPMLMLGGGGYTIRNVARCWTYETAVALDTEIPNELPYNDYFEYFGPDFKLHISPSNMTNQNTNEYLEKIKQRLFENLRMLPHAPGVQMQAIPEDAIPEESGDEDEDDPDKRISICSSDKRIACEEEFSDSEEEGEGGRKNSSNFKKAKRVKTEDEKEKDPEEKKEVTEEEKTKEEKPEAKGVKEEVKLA

CN1CCc2c(c3ccccc3n2Cc2ccc(C(=O)NO)cc2)C1 [Tubastatin A]
STAT3 phosphorylation and recruitment to the IL-10 gene promotor (STAT3 in APCs): decreased STAT3 phosphorylation and recruitment | antigen-specific T-cell responses to vaccination [1]: enhances antigen-specific T-cell responses to vaccination | JAK2/STAT3 phosphorylation [2]: inhibits JAK2/STAT3 phosphorylation

COc1ccccc1NC(=O)NCc1ccc(C(=O)NO)cc1 [Compound 1]
HDAC inhibitory activity (in words) [3]: submicromolar HDAC inhibitory activity

O=C(NO)c1ccc(CN(CCc2ccccc2)C(=O)Nc2ccccc2)cc1 [Compound 5h, N-hydroxy-4-((1-phenethyl-3-phenylureido)methyl)benzamide]
growth inhibition of B16 melanoma cell line (in words) [4]: capable of inhibiting the growth of B16 melanoma cell line

CCCCN(Cc1ccc(C(=O)NO)cc1)C(=O)Nc1ccccc1 [Compound 5g, 4-((1-butyl-3-phenylureido)methyl)-N-hydroxybenzamide]
histone H3 acetylation ([5]; 1 and 10 μM): observable increase in histone H3 acetylation | histone H3 acetylation ([5]; low nanomolar treatment): without a concamanent elevation of histone H3 acetylation | acetyl α-tubulin levels [6]: dose-dependant increase of acetyl α-tubulin levels

COc1ccccc1NC(=O)N(CCCO)Cc1ccc(C(=O)NO)cc1 [Compound 5b, N-hydroxy-4-((1-(3-hydroxypropyl)-3-(2-methoxyphenyl)ureido)methyl)-benzamide]
growth inhibition of B16 melanoma cell line (in words) [4]: performed very poorly in the cellular assay
